pIC50: −log10 of the molar value.
What follows are compounds tested against T1, Recombinant human DGAT2 protein (Homo sapiens, UniProt Q96PD7) (assay: Measurement of inhibitory effect against DGAT2 enzyme activity (SPA, Phospholipid FlashPlate, [14C]-TG production)). Conditions: concentration inhibiting [14C]-labeled triacyl glycerol (TG) production by 50%; 2 μg DGAT2-membrane protein from Sf-21 cells, 37° C.
T1 construct: FLAG (DYKDDDDK); (N); made in house; host or cells: Sf-21 insect cells (BacPAK baculovirus system); used as a membrane preparation
T1 sequence (Q96PD7 1-388): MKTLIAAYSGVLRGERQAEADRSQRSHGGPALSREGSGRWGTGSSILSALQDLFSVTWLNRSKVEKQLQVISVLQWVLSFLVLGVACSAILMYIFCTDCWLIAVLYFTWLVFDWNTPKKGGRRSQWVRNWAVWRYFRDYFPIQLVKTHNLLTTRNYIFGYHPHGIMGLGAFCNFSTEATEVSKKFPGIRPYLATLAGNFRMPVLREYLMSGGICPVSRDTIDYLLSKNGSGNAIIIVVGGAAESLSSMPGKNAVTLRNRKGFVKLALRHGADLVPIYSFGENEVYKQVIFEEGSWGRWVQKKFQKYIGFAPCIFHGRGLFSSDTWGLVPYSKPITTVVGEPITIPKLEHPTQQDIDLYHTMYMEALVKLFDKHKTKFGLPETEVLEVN
Format: biochemical
Procedure: Experimental Example: Measurement of Inhibitory Effect Against DGAT2 Enzyme Activity
In order to prepare the pBacPAK9-DGAT2, which is DGAT2 expression vector, the human DGAT2 gene amplified by polymerase chain reaction (PCR) was cloned into the EcoR1 and Xho1 sites of the pBacPAK9 (clonctech) vector. The nucleotide sequence of the primers used in PCR was the forward primer 5′ […] and the reverse primer 5′ […]. The composition of the reaction solution was to contain 50 ng of cDNA clone (OriGene), 200 μM of dATP, dCTP, dTTP, dGTP, 200 nM of each primer, 1 unit of Tag DNA Polymerase (Toyobo), 1×PCR buffer, and the final volume was adjusted to 20 μl. The reaction conditions were denatured at 95° C. for 5 minutes, followed by 30 times of 94° C. for 20 seconds, 60° C. for 20 seconds, and 72° C. for 90 seconds, followed by further reaction at 72° C. for 7 minutes.
Recombinant human DGAT2 protein was expressed in Sf-21 cells, which are insect cells, by using the BacPack baculovirus expression system (Clontech). The brief manufacturing process is as follows. First, the pBacPAK9-DGAT2 expression vector was transfected with BacPAK6 virus DNA (Bsu36I digest) into sf21 cells using Bacfectin to prepare a recombinant DGAT2 expressing baculovirus. The thus prepared baculovirus was infected with Sf-21 cells at 10 MOI (multiplicity of infection), and after 72 hours, infected insect cells were collected and membrane proteins were isolated. For membrane protein separation, the cell pellet was dissolved in a sucrose solution containing 250 mM sucrose, 10 mM Tris (pH 7.4), and 1 mM ethylenediamine-tetraacetic acid (EDTA), and then homogenized by using a dounce homogenizer, and the supernatant was taken by centrifuging at 600×g for 15 minutes, and centrifuged at 100,000×g for 1 hour to discard the supernatant, and the remaining pellet was resuspended in 20 mM HEPES buffer (pH 7.4). The prepared DGAT2 overexpressing membrane protein was dispensed in 100 μl and stored at −80° C. until use. Protein concentration was quantified by using the BCA Protein Assay Kit (Thermo Scientific).
In vitro DGAT2 analysis was performed using a Phospholipid Flash Plate (PerkinElmer) based on the principle of SPA (Scintillation Proximity Assay). First, DGAT2 inhibition compounds serially diluted 5 times from 3 nM to 10 μM (final concentration, 1% DMSO) were mixed in a buffer solution containing 2 μg DGAT2-membrane protein and 20 mM HEPES, 20 mM MgCl2, 1 mg/mL BSA, 50 μM 1,2 sn-oleoyl glycerol (Sigma), put in a 96-well flash plate (FlashPlate) and reacted at 37° C. for 20 minutes, and then 1 μM [14C] ole oil CoA (PerkinElmer, NEC651050UC) was added to be a final volume of 100 μL and further reacted at 37° C. for 15 minutes. After the enzymatic reaction was completed, 100 μL of isopropanol was added, the plate was sealed with a film, and the plate was shaken slowly in a plate shaker. The next day, the amplified scintillation signal (cpm) in Topcounter (Packard) was measured to measure the degree of production of [14C]-labeled triacyl glycerol (TG) as a reaction product. The measured value when the compound was not treated was used as a positive control, and the measured value of the compound treated group was calculated as a relative % to measure the inhibition effect of the compound on TG production.

Compound | pIC50
CCOc1ccccc1O[C@@H]1CCCN(c2cncc(NC(=O)C3CCN(C(=O)CCC(=O)O)CC3)n2)C1 [Example 83, (R)-4-(4-((6-(3-(2-ethoxyphenoxy)piperidin-1-yl)pyrazin-2-yl)carbamoyl)piperidin-1-yl)-4-oxobutanoic acid] | < 5.00
CC(C)(Cc1ccc(C(C)(C)C(=O)Nc2cncc(N3CCC[C@@H](Oc4ccccc4OC4CCC4)C3)n2)cc1)C(=O)O [Example 126, (R)-3-(4-(1-((6-(3-(2-cyclobutoxyphenoxy)piperidin-1-yl)pyrazin-2-yl)amino)-2-methyl-1-oxopropan-2-yl)phenyl)-2,2-dimethylpropanoic acid] | 5.42
CCOc1ccccc1O[C@@H]1CCCN(c2cncc(NC(=O)CC34CCC(C(=O)O)(CC3)CC4)n2)C1 [Example 118, (R)-4-(2-((6-(3-(2-ethoxyphenoxy)piperidin-1-yl)pyrazin-2-yl)amino)-2-oxoethyl)bicyclo[2.2.2]octane-1-carboxylic acid] | 6.77
CC(C)(Cc1ccc(CC(=O)Nc2cncc(N3CCC[C@@H](Oc4ccccc4OC4CCC4)C3)n2)cc1)C(=O)O [Example 96, (R)-3-(4-(2-((6-(3-(2-cyclobutoxyphenoxy)piperidin-1-yl)pyrazin-2-yl)amino)-2-oxoethyl)phenyl)-2,2-dimethylpropanoic acid] | 6.70
CCOc1cccnc1O[C@@H]1CCCN(c2ccnc(NC(=O)Cc3ccc(CC(C)(C)C(=O)O)cc3)n2)C1 [Example 114, (R)-3-(4-(2-((4-(3-((3-ethoxypyridin-2-yl)oxy)piperidin-1-yl)pyrimidin-2-yl)amino)-2-oxoethyl)phenyl)-2,2-dimethylpropanoic acid] | 6.85
CCOc1ccccc1O[C@@H]1CCCN(c2cncc(NC(=O)C3CCN(c4nnn(CC(=O)O)n4)CC3)n2)C1 [Example 82, (R)-2-(5-(4-((6-(3-(2-ethoxyphenoxy)piperidin-1-yl)pyrazin-2-yl)carbamoyl)piperidin-1-yl)-2H-tetrazol-2-yl)acetic acid] | 5.17
CCOc1cccnc1O[C@@H]1CCCN(c2cncc(NC(=O)CCC34CCC(C(=O)O)(CC3)CC4)n2)C1 [Example 120, (R)-4-(3-((6-(3-((3-ethoxypyridin-2-yl)oxy)piperidin-1-yl)pyrazin-2-yl)amino)-3-oxopropyl)bicyclo[2.2.2]octane-1-carboxylic acid] | 6.60
CCOc1ccccc1O[C@@H]1CCCN(c2cncc(NC(=O)C3CCN(c4ccc(CC(=O)O)cc4)CC3)n2)C1 [Example 79, (R)-2-(4-(4-((6-(3-(2-ethoxyphenoxy)piperidin-1-yl)pyrazin-2-yl)carbamoyl)piperidin-1-yl)phenyl)acetic acid] | 6.03
CCOc1ccccc1O[C@@H]1CCCN(c2cncc(NC(=O)C3CCN(CC(=O)O)CC3)n2)C1 [Example 84, (R)-2-(4-((6-(3-(2-ethoxyphenoxy)piperidin-1-yl)pyrazin-2-yl)carbamoyl)piperidin-1-yl)acetic acid] | < 5.00
CCOc1ccccc1O[C@@H]1CCCN(c2cncc(NC(=O)C3(C)CCNC3)n2)C1 (stereo partly drawn) [Example 88, N-(6-((R)-3-(2-ethoxyphenoxy)piperidin-1-yl)pyrazin-2-yl)-3-methylpyrrolidine-3-carboxamide] | 5.21

Next, values leading:

pIC50 | Compound
5.57 | CCOc1ccccc1O[C@@H]1CCCN(c2cccc(NC(=O)Cc3ccc(CC(=O)O)cc3)n2)C1 [Example 66, (R)-2-(4-(2-((6-(3-(2-ethoxyphenoxy)piperidin-1-yl)pyridin-2-yl)amino)-2-oxoethyl)phenyl)acetic acid]
5.40 | CCOc1ccccc1O[C@@H]1CCCN(c2cncc(NC(=O)c3ccc(CC(=O)O)cc3)n2)C1 [Example 12, (R)-2-(4-((6-(3-(2-ethoxyphenoxy)piperidin-1-yl)pyrazin-2-yl)carbamoyl)phenyl)acetic acid]
6.82 | CCOc1ccccc1O[C@@H]1CCCN(c2ccnc(NC(=O)Cc3ccc(CC(C)(C)C(=O)O)cc3)n2)C1 [Example 113, (R)-3-(4-(2-((4-(3-(2-ethoxyphenoxy)piperidin-1-yl)pyrimidin-2-yl)amino)-2-oxoethyl)phenyl)-2,2-dimethylpropanoic acid]
6.41 | CCOc1ccccc1O[C@@H]1CCCN(c2cncc(NC(=O)CCc3cc(F)c(C(=O)O)c(F)c3)n2)C1 [Example 53, (R)-4-(3-((6-(3-(2-ethoxyphenoxy)piperidin-1-yl)pyrazin-2-yl)amino)-3-oxopropyl)-2,6-difluorobenzoic acid]
7.06 | CCOc1ccccc1O[C@@H]1CCCN(c2cncc(NC(=O)CCc3cc(Cl)c(C(=O)O)c(Cl)c3)n2)C1 [Example 54, (R)-2,6-dichloro-4-(3-((6-(3-(2-ethoxyphenoxy)piperidin-1-yl)pyrazin-2-yl)amino)-3-oxopropyl)benzoic acid]
6.29 | CCOc1ccccc1O[C@@H]1CCCN(c2cncc(NC(=O)CCc3ccc(C(=O)O)c(OC)c3)n2)C1 [Example 46, (R)-4-(3-((6-(3-(2-ethoxyphenoxy)piperidin-1-yl)pyrazin-2-yl)amino)-3-oxopropyl)-2-methoxybenzoic acid]
7.92 | CCOc1ccccc1O[C@@H]1CCCN(c2cncc(NC(=O)Cc3ccc(O)cc3)n2)C1 [Example 36, (R)—N-(6-(3-(2-ethoxyphenoxy)piperidin-1-yl)pyrazin-2-yl)-2-(4-hydroxyphenyl)acetamide]
6.72 | CC(C)(C(=O)O)c1ccc(CCC(=O)Nc2cncc(N3CCC[C@@H](Oc4ccccc4OCCF)C3)n2)cc1 [Example 93, (R)-2-(4-(3-((6-(3-(2-(2-fluoroethoxy)phenoxy)piperidin-1-yl)pyrazin-2-yl)amino)-3-oxopropyl)phenyl)-2-methylpropanoic acid]
6.15 | CCOc1ccccc1O[C@@H]1CCCN(c2cncc(NC(=O)CCc3cccc(C(=O)O)c3)n2)C1 [Example 48, (R)-3-(3-((6-(3-(2-ethoxyphenoxy)piperidin-1-yl)pyrazin-2-yl)amino)-3-oxopropyl)benzoic acid]
6.51 | CCOc1ccccc1O[C@@H]1CCCN(c2cncc(NC(=O)C(C)(C)c3ccc(CCC(=O)O)cc3)n2)C1 [Example 73, (R)-3-(4-(1-((6-(3-(2-ethoxyphenoxy)piperidin-1-yl)pyrazin-2-yl)amino)-2-methyl-1-oxopropan-2-yl)phenyl)propanoic acid]
7.00 | CCOc1ccccc1O[C@@H]1CCCN(c2cncc(NC(=O)CCc3ccc(CC(=O)O)cc3)n2)C1 [Example 49, (R)-2-(4-(3-((6-(3-(2-ethoxyphenoxy)piperidin-1-yl)pyrazin-2-yl)amino)-3-oxopropyl)phenyl)acetic acid]
7.15 | CCOc1ccccc1O[C@@H]1CCCN(c2cncc(NC(=O)Cc3ccc(OCc4ccc(C(C)(C)C(=O)O)cc4)cc3)n2)C1 [Example 107, (R)-2-(4-((4-(2-((6-(3-(2-ethoxyphenoxy)piperidin-1-yl)pyrazin-2-yl)amino)-2-oxoethyl)phenoxy)methyl)phenyl)-2-methylpropanoic acid]
6.49 | CCOc1ccccc1O[C@@H]1CCCN(c2cncc(NC(=O)COc3ccc(C(C)C(=O)O)cc3)n2)C1 (stereo partly drawn) [Example 101, 2-(4-(2-((6-((R)-3-(2-ethoxyphenoxy)piperidin-1-yl)pyrazin-2-yl)amino)-2-oxoethoxy)phenyl)propanoic acid]

From patent US12637440B2, “Amide derivative useful as diacylglycerol acyltransferase 2 inhibitor, and use thereof” (LG CHEM, LTD., priority 2019, dated 2026)
